Laboratory results taken from patent publication US20250276955A1, “CORONAVIRUS MAIN PROTEASE INHIBITORS AND METHODS USING SAME” (Baylor College of Medicine, priority 2021, published 2025).
Values after ≈ are worked out from the molar mass of the structure shown. “Also recorded” adds a separate entry of the source. Like-named read-outs stand apart in the source and are kept apart here.

What was measured:
[1] = Metabolic stability in mouse liver microsomes; format: in vitro ADME; conditions: mouse, liver microsomes; for half-life at 2 μM: Table 4, read-out: MLM t1/2
Procedure: (§1) The samples were collected at specific time-points 0, 30, and 60 min in duplicate. The reactions were terminated by adding an equivalent volume of ice-cold methanol and vortexed. […] Three μL of the supernatant was analyzed by UHPLC-Q Exactive Orbitrap MS (Thermo Fisher Scientific, USA) equipped with 50 mm×4.6 mm column (XDB C-18, Agilent Technologies, USA). The column temperature was maintained at 40° C. The flow rate was at 0.3 mL/min with a 30% mobile phase (acetonitrile containing 0.1% formic acid). Q Exactive MS was operated in positive mode with electrospray ionization. Ultra-pure nitrogen was applied as the sheath (45 arbitrary unit), auxiliary (10 arbitrary unit), sweep (1.0 arbitrary unit) and the collision gas. […] MS data were acquired from 80 to 1,200 Da in profile mode.

[2] = target: SARS-CoV-2 main protease (M^pro) (Severe acute respiratory syndrome coronavirus 2, UniProt P0DTD1); test: Protein thermal shift stability assay (SYPRO Orange); format: binding
SARS-COV-2 M^pro-His6 = SARS-COV-2 M^pro-His6 (Severe acute respiratory syndrome coronavirus 2, UniProt P0DTD1); test: biochemical; format: biochemical
HOVPro-Gi.1 = target: T1, HOVPro-Gi.1 (Norovirus, UniProt Q83883); test: Thermal shift, HOVPro-Gi.1; format: binding
T1 construct: HOVPro-Gi.1

[3] = target: SARS-COV-2 M^pro (authentic N- and C-termini) (Severe acute respiratory syndrome coronavirus 2, UniProt P0DTD1); test: biochemical; format: biochemical
[4] = Metabolic stability in human liver microsomes; format: in vitro ADME; conditions: human, liver microsomes; for half-life at 2 μM: Table 4, read-out: HLM t1/2
Procedure: as §1

HOVPro-Gii.4 = test: Thermal shift, HOVPro-Gii.4; format: binding
Human Cathepsin B = target: T2, Human Cathepsin B (Homo sapiens, UniProt P07858); test: Cathepsin B assay; format: biochemical
T2 construct: purchased BPS Bioscience 79590
Procedure: (§2) A kit from BPS Bioscience (#79590) was used with adjustments to the manufacturer's protocol as follows: The activated enzyme was diluted 250-fold just before use, and the reaction was run at RT in black 96 half-area plates in a total reaction volume of 50 uL containing 0.01% Tween-20. Instead of measuring endpoints at 60 min the increase in fluorescence (Ex 360 nm, Em 460 nm) per second (RFU/s) was obtained from linear progress curves over 10 min. Fractional activities were calculated from reactions with no inhibitors. E-64 was used as a positive control.

[5] = 293T relative cell viability; conditions: human, 293T cells
[6] = Apparent solubility in PBS buffer; conditions: for solubility: PBS buffer with 2% DMSO, aqueous buffer, kinetic from dmso stock
human thrombin = target: T3, human thrombin (Homo sapiens, UniProt P00734); test: Thrombin fluorescence assay; format: biochemical
T3 construct: purchased Sigma-Aldrich MAK243

renin = target: T4, renin (Homo sapiens, UniProt P00797); test: Renin assay; format: biochemical
T4 construct: purchased BPS Bioscience 80211
T4 sequence (P00797 67-406): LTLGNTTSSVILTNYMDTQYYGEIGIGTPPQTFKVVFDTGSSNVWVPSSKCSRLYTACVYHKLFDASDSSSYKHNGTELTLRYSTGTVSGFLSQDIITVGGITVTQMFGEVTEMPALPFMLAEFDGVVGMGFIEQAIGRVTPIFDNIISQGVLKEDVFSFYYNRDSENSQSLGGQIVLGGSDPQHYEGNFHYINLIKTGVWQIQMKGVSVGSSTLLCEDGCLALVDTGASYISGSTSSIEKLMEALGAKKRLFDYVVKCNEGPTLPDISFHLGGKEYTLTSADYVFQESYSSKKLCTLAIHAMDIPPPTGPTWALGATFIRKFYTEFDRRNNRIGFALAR
Procedure: as §2, with “(#80211)” for “(#79590)”, “The” for “The activated enzyme was diluted 250-fold just before use, and the”, “30” for “60”, “490” for “360”, “520” for “460”, “Aliskiren” for “E-64”

Pharmacokinetics in mice = format: in vivo; conditions: 50 mg/kg intraperitoneal, plasma
Procedure: The whole blood samples were span at 2,000 rcf for 5 min for the separation of plasma. […] The concentration of these compounds in plasma were quantified using a calibration curve.

[7] = target: T5, matrix metallopeptidase 1 (MMP-1) (Homo sapiens, UniProt P03956); test: MMP-1 assay; format: biochemical
T5 construct: purchased Biovision K794-100
T5 sequence (P03956 100-469): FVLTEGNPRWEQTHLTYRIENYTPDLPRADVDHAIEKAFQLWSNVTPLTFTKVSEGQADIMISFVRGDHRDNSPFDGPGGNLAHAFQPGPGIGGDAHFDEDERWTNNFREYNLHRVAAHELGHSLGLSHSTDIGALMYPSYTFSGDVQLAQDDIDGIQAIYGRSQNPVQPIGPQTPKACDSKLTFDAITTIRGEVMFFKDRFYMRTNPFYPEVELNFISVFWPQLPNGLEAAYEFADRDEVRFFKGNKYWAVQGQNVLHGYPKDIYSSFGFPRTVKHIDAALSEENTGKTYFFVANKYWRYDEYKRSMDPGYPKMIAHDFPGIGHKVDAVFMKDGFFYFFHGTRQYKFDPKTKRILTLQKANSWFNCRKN
Procedure: A kit from Biovision (#K794-100) was used with adjustments to the manufacturer's protocol as follows: The enzyme was reconstituted according to protocol and then diluted 5-fold with assay buffer just before use. The unknown fluorogenic substrate was further diluted 10-fold with the provided assay buffer. The reaction was run at 37 C in black 96 half-area plates in a total reaction volume of 50 μL containing 0.01% Tween-20. The increase in fluorescence (Ex 490 nm, Em 520 nm) per second (RFU/s) was obtained from linear progress curves over 10 min. Fractional activities were calculated from reactions with no inhibitors. GM 6001 was used as a positive control.

HepG2 cells = test: HepG2 cytotoxicity assay (XTT); conditions: Homo sapiens, HepG2, 24 h, read-out: HepG2 cell viability IC50

T1 sequence (Q83883 1101-1281): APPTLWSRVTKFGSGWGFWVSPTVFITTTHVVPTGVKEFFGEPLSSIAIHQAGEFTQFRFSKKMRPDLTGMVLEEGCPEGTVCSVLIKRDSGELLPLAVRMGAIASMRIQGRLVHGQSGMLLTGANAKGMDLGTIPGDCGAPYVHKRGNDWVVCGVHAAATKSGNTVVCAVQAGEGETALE

SMILES	microsomal CLint at 2 μM [1] [µL/min/mg]	half-life at 2 μM [1] [min]	ΔTm of HOVPro-Gi.1 at 50 μM compound conc. (HOVPro-Gi.1) [°C]	microsomal CLint at 2 μM [4] [µL/min/mg]	half-life at 2 μM [4] [min]	ΔTm of HOVPro-Gii.4 at 50 μM compound conc. (HOVPro-Gii.4) [°C]	Human Cathepsin B, Fractional Remaining Activity (Human Cathepsin B)	cytotoxicity at 3 day, 10 μM [5] [%]	solubility [6] [µM]	thrombin inhibition (in words) (human thrombin)	renin inhibition (in words) (renin)	cathepsin B inhibition (in words) (Human Cathepsin B)	AUC0-t (Pharmacokinetics in mice) [µM·h]	CL/F (Pharmacokinetics in mice)	Tmax (Pharmacokinetics in mice) [min]	MMP-1 inhibition (in words) [7]	Thrombin inhibition (human thrombin; fluorescence assay)	thrombin inhibition (in words) (human thrombin; fluorescence assay)	ΔTm of Mpro at 50 μM compound conc. ([2]; 50 μM compound, […]) [°C]	also measured
COc1cc(-c2cccc3[nH]ncc23)cc(C=O)c1OCC(=O)N1CCC(Oc2cccc(C(=O)N(C)C)c2)C1 (centres unmarked) [CDD-1714, 3-((1-(2-(2-formyl-4-(1H-indazol-4-yl)-6-methoxyphenoxy)acetyl)pyrrolidin-3-yl)oxy)-N,N-dimethylbenzamide]	130	10.7	−0.11	132	10.5	−0.41	0.92	21	54.4 (≈ 29.5 µg/mL)	No inhibition										stabilization of M^pro in thermal shift assay (in words) [2]: stabilized; also recorded: concentration-dependent stabilization; ΔTm of Mpro at 50 μM compound conc. [2]: 2.93 °C; Ki (SARS-COV-2 M^pro-His6; 25 nM enzyme, 15 μM fluorescent peptide, Morrison equation, Inactive = less than 50% inhibition at 25 μM compound, read-out: M^pro-His Ki): 20.2 ± 3 nM; Ki ([3]; Morrison equation, read-out: apparent Ki against M^pro): 24.4 nM; Thrombin inhibition (human thrombin): None
CCCC(NC(=O)c1cccc2nc(-c3cncc4ccccc34)n([C@H]3C[C@H](C(=O)NC)C3)c12)c1ccc(C(F)(F)F)cc1 (some centres unmarked) [CDD-1733]							0.91				negative	negative	7.80 ± 3.22	7.73 ± 2.75 mg/(hr · μmol/L)/kg	60	negative	None	No inhibition; also recorded: negative		ΔTm of Mpro at 50 μM compound conc. ([2]; 50 μM compound, […], 50 µM): 7.75 °C; ΔTm of HOVPro-Gi.1 at 50 μM compound conc. (HOVPro-Gi.1; 50 µM): −0.74 °C; ΔTm of HOVPro-Gii.4 at 50 μM compound conc. (HOVPro-Gii.4; 50 µM): −1.2 °C; Measured apparent solubility in PBS buffer (2% DMSO) ([6]; PBS buffer, 2% DMSO): 30.3 µM
CNCc1cc(-c2cccc3[nH]ncc23)cc(OC)c1OCC(=O)N(C)C [CDD-1777]								4	195 (≈ 71.7 µg/mL)										1.00	M^pro-His Ki (SARS-COV-2 M^pro-His6): Inactive; Ki,app [3]: Inactive; M^pro Ki [3]: Inactive
CCC[C@H](NC(=O)c1cccc2nc(-c3cncc4ccccc34)n([C@H]3C[C@H](C(=O)NC)C3)c12)c1ccc(OC(F)F)cc1 [CDD-1780]	39.5	35.1	−0.18	76.1	18	−1.23	0.95	6	41.8 (≈ 25 µg/mL)								None		9.19	Ki (SARS-COV-2 M^pro-His6; Table 3, column a (footnote not given), read-out: Kiapp (nM)^a): 13.7 ± 1.5 nM; Ki ([3]; Table 3, column b (footnote not given), read-out: Kiapp (nM)^b): 15.7 ± 1.6 nM
CNC(=O)[C@H]1C[C@H](n2c(-c3cncc4ccccc34)nc3cccc(C(=O)NC(C)c4ccc5ccccc5c4)c32)C1 (some centres unmarked) [CDD-1819]											negative	negative		7.26 ± 1.81 mg/(hr · μmol/L)/kg		negative		negative		IC50 (HepG2 cells): > 100000 nM; MRT last (Pharmacokinetics in mice; mouse, ip, read-out: MRT0-t): 78.6 ± 7.2 min; MRT inf (Pharmacokinetics in mice; mouse, ip, read-out: MRT0-∞): 85.2 ± 9.6 min; Tmax (Pharmacokinetics in mice; mouse, ip, read-out: Tmax): 19.8 ± 8.4 min
CNC(=O)CCCn1c(-c2cncc3ccccc23)nc2cccc(C(=O)N[C@@H](C)c3ccc4ccccc4c3)c21 [CDD-1845]										negative	negative	negative	14.87 ± 7.79	4.02 ± 1.98 mg/(hr · μmol/L)/kg	19.8 ± 8.4	negative				AUC0-∞ (Pharmacokinetics in mice): 14.93 ± 7.85 µM·h; Cmax (Pharmacokinetics in mice): 8.93 ± 4.55 µM; MRT0-t (Pharmacokinetics in mice): 73.2 ± 1.8 min; MRT0-∞ (Pharmacokinetics in mice): 75 ± 1.2 min; T1/2 (Pharmacokinetics in mice): 68.4 ± 19.2 min
